The assay concerns P388 leukemia ip, CD2F1 mice, survival T/C. Briefly: NCI In Vivo Anticancer Drug Screen. Data for tumor model P388 Leukemia (intraperitoneal) in CD2F1 (CDF1) mice. As to conditions: endpoint: median survival time, higher = longer survival. The method in brief:
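Mice carrying the transplanted tumor received test compound or vehicle. Survival was recorded in each group, and the value is the treated-group measurement divided by that of the vehicle-treated control group.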

Where [1] appears, read: dose: 50.0 mg/kg/injection, schedule: Q01DX009 (ip), vehicle: saline with Tween-80.
Where [2] appears, read: dose: 100.0 mg/kg/injection, schedule: Q01DX009 (ip), vehicle: saline with Tween-80.
The mark [3] stands for this setting: dose: 60.0 mg/kg/injection, schedule: Q01DX005 (ip), vehicle: Klucel (hydroxypropylcellulose) (HPC).
Where [4] appears, read: dose: 120.0 mg/kg/injection, schedule: Q01DX005 (ip), vehicle: Klucel (hydroxypropylcellulose) (HPC).
[5] abbreviates: dose: 240.0 mg/kg/injection, schedule: Q01DX005 (ip), vehicle: Klucel (hydroxypropylcellulose) (HPC).
Where [6] appears, read: dose: 100.0 mg/kg/injection, schedule: Q01DX001 (ip), vehicle: saline with Tween-80.
[7] abbreviates: dose: 200.0 mg/kg/injection, schedule: Q01DX001 (ip), vehicle: saline with Tween-80.
Setting [8] is: dose: 50.0 mg/kg/injection, schedule: Q01DX009 (ip), vehicle: Klucel (hydroxypropylcellulose) (HPC).
[9] abbreviates: dose: 100.0 mg/kg/injection, schedule: Q01DX009 (ip), vehicle: Klucel (hydroxypropylcellulose) (HPC).
Setting [10] is: dose: 12.5 mg/kg/injection, schedule: Q01DX005 (ip), vehicle: Klucel (hydroxypropylcellulose) (HPC).
Setting [11] is: dose: 25.0 mg/kg/injection, schedule: Q01DX005 (ip), vehicle: Klucel (hydroxypropylcellulose) (HPC).
Where [12] appears, read: dose: 200.0 mg/kg/injection, schedule: Q01DX009 (ip), vehicle: saline with Tween-80.
The mark [13] stands for this setting: dose: 60.0 mg/kg/injection, schedule: Q01DX005 (ip), vehicle: saline with Tween-80.
Where [14] appears, read: dose: 120.0 mg/kg/injection, schedule: Q01DX005 (ip), vehicle: saline with Tween-80.
Where [15] appears, read: dose: 240.0 mg/kg/injection, schedule: Q01DX005 (ip), vehicle: saline with Tween-80.

Several values for one entry are separate records, joined by “and”; a condition that tells them apart may be missing. Equal entries are not always repeated. Inconclusive results and toxic doses are left out.

For `O=c1[nH]c2ccc(Br)cc2c(=O)o1`, the T/C was 104 % of control (dose: 12.5 mg/kg/injection, schedule: Q01DX009 (ip), vehicle: saline with Tween-80); 102 % of control (dose: 25.0 mg/kg/injection, schedule: Q01DX009 (ip), vehicle: saline with Tween-80); 110 % of control under setting [1]; 100 % of control (dose: 100.0 mg/kg/injection, schedule: Q01DX001 (ip), vehicle: other); 114 % of control under setting [2]; 100 % of control (dose: 200.0 mg/kg/injection, schedule: Q01DX001 (ip), vehicle: other). The T/C (dose: 400.0 mg/kg/injection, schedule: Q01DX001 (ip), vehicle: other) is 95 % of control.
Regarding `COC(=O)c1[nH]c(=O)c(C#N)c(C(=O)OC)c1C(=O)c1ccc(Cl)c(Cl)c1`, the T/C runs as follows: under setting [3], 100 % of control; under setting [4], 107 % of control; under setting [5], 100 % of control.
Consider `CCOC(=O)c1c2c(c[nH]c1=O)CCCC2`, for which the T/C under setting [6] is 106 % of control and the T/C under setting [7] is 97 % of control.
With `C/C(=C\C=C/c1ccoc1)C(=O)c1cc(C)co1`, the T/C (dose: 6.25 mg/kg/injection, schedule: Q01DX009 (ip), vehicle: Klucel (hydroxypropylcellulose) (HPC)) is 106 % of control; the T/C (dose: 12.5 mg/kg/injection, schedule: Q01DX009 (ip), vehicle: Klucel (hydroxypropylcellulose) (HPC)) is 103 % of control and 95 % of control; the T/C (dose: 25.0 mg/kg/injection, schedule: Q01DX009 (ip), vehicle: Klucel (hydroxypropylcellulose) (HPC)) is 106 % of control and 96 % of control; the T/C under setting [8] was 115 % of control and 96 % of control; the T/C under setting [9] was 104 % of control.
Take `N#CCCCN1C(=O)c2ccccc2C1=O`: the T/C by setting is: under setting [8], 102 % of control; under setting [9], 104 % of control.
With `COc1ccc(-c2cc(C(=O)Nc3cc(C(F)(F)F)cc(C(F)(F)F)c3)c3ccccc3n2)cc1`, the T/C is, setting by setting: (dose: 50.0 mg/kg/injection, schedule: Q01DX005 (ip), vehicle: saline with Tween-80) 91 % of control; (dose: 100.0 mg/kg/injection, schedule: Q01DX005 (ip), vehicle: DMSO) 118 % of control; (dose: 100.0 mg/kg/injection, schedule: Q01DX005 (ip), vehicle: saline with Tween-80) 89 % of control; (dose: 200.0 mg/kg/injection, schedule: Q01DX005 (ip), vehicle: DMSO) 118 % of control; (dose: 200.0 mg/kg/injection, schedule: Q01DX005 (ip), vehicle: saline with Tween-80) 93 % of control; (dose: 400.0 mg/kg/injection, schedule: Q01DX005 (ip), vehicle: DMSO) 96 % of control.
Regarding `C=CC(=O)NC(C)(C)CC(=O)O`, the T/C was 100 % of control (dose: 50.0 mg/kg/injection, schedule: Q01DX009 (ip), vehicle: saline); 100 % of control (dose: 100.0 mg/kg/injection, schedule: Q01DX009 (ip), vehicle: saline); 99 % of control (dose: 200.0 mg/kg/injection, schedule: Q01DX009 (ip), vehicle: saline).
For the compound `CCOc1ccc2ccccc2c1C(Cc1ccccc1)NC` (stereo not drawn), the T/C under setting [10] was 99 % of control; the T/C under setting [11] was 93 % of control; the T/C (dose: 50.0 mg/kg/injection, schedule: Q01DX005 (ip), vehicle: Klucel (hydroxypropylcellulose) (HPC)) is 99 % of control and 100 % of control.
On to `CCCCCCCCCCCCCCCCNc1cccc2ccccc12`, for which the T/C (dose: 100.0 mg/kg/injection, schedule: Q01DX009 (ip), vehicle: saline sonified) was 95 % of control; the T/C under setting [2] was 100 % of control; the T/C (dose: 100.0 mg/kg/injection, schedule: Q04DX003 (ip), vehicle: saline with Tween-80) was 95 % of control; the T/C (dose: 200.0 mg/kg/injection, schedule: Q01DX009 (ip), vehicle: saline sonified) is 105 % of control; the T/C under setting [12] is 90 % of control; the T/C (dose: 200.0 mg/kg/injection, schedule: Q04DX003 (ip), vehicle: saline with Tween-80) was 86 % of control. In addition, the T/C by setting is: (dose: 400.0 mg/kg/injection, schedule: Q01DX009 (ip), vehicle: saline sonified) 95 % of control; (dose: 400.0 mg/kg/injection, schedule: Q01DX009 (ip), vehicle: saline with Tween-80) 90 % of control; (dose: 400.0 mg/kg/injection, schedule: Q04DX003 (ip), vehicle: saline with Tween-80) 95 % of control.
As to `CCC(O)C1(OC)C=CC(OC)O1` (stereo not drawn), the T/C was 100 % of control (dose: 3.12 mg/kg/injection, schedule: Q01DX005 (ip), vehicle: saline); 97 % of control (dose: 6.25 mg/kg/injection, schedule: Q01DX005 (ip), vehicle: saline); 101 % of control (dose: 12.5 mg/kg/injection, schedule: Q01DX005 (ip), vehicle: saline).
For the compound `COc1ccc(S(=O)(=O)N/N=C/C(=O)O)cc1`, the T/C is 116 % of control (dose: 6.25 mg/kg/injection, schedule: Q01DX009 (ip), vehicle: other); 118 % of control (dose: 12.5 mg/kg/injection, schedule: Q01DX005 (ip), vehicle: saline with Tween-80); 162 % of control (dose: 25.0 mg/kg/injection, schedule: Q01DX009 (ip), vehicle: other); 154 % of control (dose: 50.0 mg/kg/injection, schedule: Q01DX005 (ip), vehicle: distilled water + Tween-80); 158 % of control and 159 % of control (dose: 50.0 mg/kg/injection, schedule: Q01DX009 (ip), vehicle: other); 182 % of control (dose: 100.0 mg/kg/injection, schedule: Q01DX005 (ip), vehicle: distilled water + Tween-80).
For `CCOP(=O)(CS(=O)CCC1(C)NC(=O)NC1=O)OCC` (stereo not drawn), the T/C by setting is: (dose: 50.0 mg/kg/injection, schedule: Q01DX005 (ip), vehicle: saline) 100 % of control; (dose: 100.0 mg/kg/injection, schedule: Q01DX005 (ip), vehicle: saline) 101 % of control; (dose: 200.0 mg/kg/injection, schedule: Q01DX005 (ip), vehicle: saline) 103 % of control.
For `CCN1C2=NCCN2C(=O)c2ccccc21`, the T/C under setting [8] was 97 % of control and the T/C under setting [9] was 97 % of control.
`CC1SC(=O)NN=C1c1ccccc1` (stereo not drawn): the T/C is, setting by setting: under setting [1], 94 % of control; under setting [2], 97 % of control; under setting [12], 106 % of control.
For `CCCCCCCCCCCC(=O)N(CCOC(=O)c1ccccc1)CCOC(=O)c1ccccc1`, in that order: 101 % of control, 93 % of control and 107 % of control.
Consider `O=C1OC2C(O)C(N(O)c3ccccc3)OC2[C@@H]1O` (stereo partly drawn), for which the T/C is 100 % of control under setting [13], 106 % of control under setting [14] and 106 % of control under setting [15].
As for `Cc1cccc(OCC(O)CN2CC2)c1` (stereo not drawn), the T/C under setting [6] is 112 % of control; the T/C under setting [7] was 120 % of control; the T/C (dose: 400.0 mg/kg/injection, schedule: Q01DX001 (ip), vehicle: saline with Tween-80) was 103 % of control.
On to `COc1cc2c(cc1OC)C(c1cccc(Cl)c1)=NN=C(C)C2`, for which the T/C was 105 % of control under setting [3], 101 % of control under setting [4] and 96 % of control under setting [5].
On to `CN1c2ccc(Br)c[c]2[Sn]2([c]3cc(Br)ccc31)[c]1cc(Br)ccc1N(C)c1ccc(Br)c[c]12`, for which the T/C under setting [13] is 95 % of control, the T/C under setting [14] is 98 % of control and the T/C under setting [15] is 92 % of control.
As for `CC1CCC2C(C)C3C(CC4C5CC=C6CC(OC7OC(CO)C(O)C(OC8OC(CO)C(O)C(O)C8O)C7OC7OC(C)C(O)C(O)C7O)CCC6(C)C5CCC43C)N2C1` (stereo not drawn), the T/C reads like this: (dose: 6.25 mg/kg/injection, schedule: Q01DX005 (ip), vehicle: Klucel (hydroxypropylcellulose) (HPC)) 91 % of control; under setting [10], 95 % of control; under setting [11], 89 % of control; (dose: 25.0 mg/kg/injection, schedule: Q04DX003 (ip), vehicle: suspension in saline) 98 % of control; (dose: 50.0 mg/kg/injection, schedule: Q04DX003 (ip), vehicle: suspension in saline) 96 % of control; (dose: 100.0 mg/kg/injection, schedule: Q04DX003 (ip), vehicle: suspension in saline) 105 % of control.

For the origin of these results see PubChem BioAssay AID330 (DTP/NCI, 2004).
